The text below walks through data of US20120196801A1, “Wound-healing, anti-ambustial, regenerating, and anti-viral pharmaceutical formula for local administration” (priority 2011, published 2012).

The subject of this assay is endogenous interferon. The arrangement: species or system non-linear white mice. The settings on record: mouse, in vivo, ip.

Poly I:C: the “Minimum Dose Inducing Interferon” value was found to be 5 µg/mL and the “Titer of ME Interferons” value came out at 1638 ME.
